Series [1] deals with delayed hypersensitivity reaction (pertussis vaccine pleurisy). Briefly: pertussis vaccine pleurisy test in rats. It counts as in vivo, rat (male Sprague-Dawley). Particulars: 10 mg/kg p.o.; for change in vivo at 10 mg/kg: Rattus norvegicus, po, 48 h, once daily day 10 to day 13, vs control, preliminary, read-out: Enhancement of the delayed hypersensitivity reaction assessed by the exudate vol. Put shortly: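 Male Sprague-Dawley rats (250-275 g, ≥10/group) sensitized day 0 with heat-killed B. pertussis in Freund's incomplete adjuvant into hind and forepaw, challenged intrapleurally day 12. Compounds in aqueous methocel given intragastrically once daily days 10-13. Pleural exudate volume measured day 14, expressed as percent of methocel control.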

In series [2] the test system is carrageenan-induced edema. Description: carrageenan edema test in rats. Particulars: for change in vivo at 80 mg/kg: Rattus norvegicus, po, 80 mg/kg p.o., 30 min before carrageenan, edema weight 3 h after, vs control, preliminary, read-out: Potentiation of the carrageenan edema, %; for significant potentiation of the carrageenan edema: dose within the range 10-160 mg/kg p.o. It counts as in vivo, rat (female Sprague-Dawley). In a few lines:
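Female Sprague-Dawley rats (110-120 g, ≥10 per group) received compound intragastrically in aqueous methocel 30 min before plantar carrageenan injection into the right hind paw. At 3 h, right minus left paw weight gave edema weight, expressed as percent of methocel controls.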
Background: Carrageenan injected into the paw causes an acute inflammation.

Series [3] concerns delayed hypersensitivity reaction (adjuvant arthritis, Mycobacterium butyricum). Briefly: adjuvant arthritis test in rats. As to conditions: for significant potentiating effect in the adjuvant arthritis test / change in vivo at 40 mg/kg: 40 mg/kg p.o.; for change in vivo at 10 mg/kg: 10 mg/kg p.o. The format is in vivo, rat (male Lister hooded). The source says: The adjuvant arthritis test in rats produces a measureable extent of a delayed hypersensitivity reaction and can be used for a determination of variations in the extent of the delayed hypersensitivity reaction upon drug administration to the host. An increase in the extent of the delayed hypersensitivity reaction upon drug administration consequently indicates enhanced cell-mediated immunity in the host.
This example illustrates the effect of the compounds of the general formula I in the adjuvant arthritis test in rats.
The adjuvant arthritis test in rats produces a delayed hypersensitivity reaction and can be used for a determination of variations of the delayed hypersensitivity reaction upon drug administration to the host. An increase in the extent of the delayed hypersensitivity reaction upon drug administration consequently indicates enhanced cell-mediated immunity in the host.
A modification of a method described in (12) was used. Male Lister hooded rats weighing 250-275 g were used. At least 9 animals were used in each experimental group.
A single intradermal injection of 0.5 mg/0.1 ml heat killed Mycobacterium butyricum suspended in sterile liquid paraffinum was given into the right hind foot of all rats. After this injection, day 0, the volume of the left hind paw, measured by water displacement, was followed to the end of the experiment.
The substances suspended in aqueous methocel solution 10 ml/kg were given intragastrically. The control group was given methocel solution 10 ml/kg. The different groups of animals were thus treated once daily from day -4 to day 14. The effect of the substances was assessed by the left foot volume expressed in percent after comparison with the control groups.

The next series concerns mice. Particulars: mice p.o.; reference 13; cited from earlier work.
The mark [4] stands for this setting: Rattus norvegicus, po, 336 h, once daily day -4 to day 14, vs control, preliminary, read-out: Increase of the volume of the left foot.

Structures are written as SMILES.

For the compound `CN(C(=O)c1c(O)c2ccccc2n(C)c1=O)c1ccccc1` [1:43, N-phenyl-N-methyl-1,2-dihydro-4-hydroxy-1-methyl-2-oxo-quinoline-3-carboxamide], the change in vivo at 10 mg/kg in series [1] came to 70%; in series [3] (setting [4]) it was 48%. In addition, the change in vivo at 80 mg/kg in series [2] worked out at 84%. In addition, the “significant potentiating effect in the adjuvant arthritis test” value in series [3] is on record as “significant potentiating effect”.
With `O=C(Nc1ccccc1)c1c(O)c2cccc3c2n(c1=O)CC3` [2:2, N-phenyl-1,2-dihydro-1,8-ethylene-4-hydroxy-2-oxo-quinoline-3-carboxamide], the change in vivo at 10 mg/kg in series [1] was 64%. Further, the change in vivo at 80 mg/kg in series [2] is 43%. The change in vivo at 40 mg/kg in series [3] (setting [4]) amounted to 40%.
For `O=C(Nc1ccccc1)c1c(O)c2cccc3c2n(c1=O)CCC3` [2:3, N-phenyl-1,2-dihydro-4-hydroxy-2-oxo-1,8-trimethylene-quinoline-3-carboxamide] the same measures were 66%, 61% and 39%.
As to `COc1c(C(=O)Nc2ccccc2)c(=O)n(C)c2ccccc12` [6:1, N-phenyl-1,2-dihydro-4-methoxy-1-methyl-2-oxo-quinoline-3-carboxamide], in series [1], the change in vivo at 10 mg/kg came out at 91%. Besides, in series [2], the change in vivo at 80 mg/kg was 60%. Further, the change in vivo at 40 mg/kg in series [3] (setting [4]) came out at 34%.
Regarding `Cn1c(=O)c(C(=O)Nc2nccs2)c(O)c2ccccc21` [7:1, N-(2-thiazolyl)-1,2-dihydro-4-hydroxy-1-methyl-2-oxo-quinoline-3-carboxamide], the change in vivo at 10 mg/kg in series [1] was found to be 81%. Further, the change in vivo at 80 mg/kg in series [2] was found to be 84%. Also, in series [3] (Rattus norvegicus, po, 336 h, 20 mg/kg p.o., once daily day -4 to day 14, vs control, preliminary, read-out: Increase of the volume of the left foot), the change in vivo at 20 mg/kg is 44%. Moreover, the change in vivo at 40 mg/kg in series [3] (setting [4]) was determined as 35%.
Regarding `Cn1c(=O)c(C(=O)Nc2cnccn2)c(O)c2ccccc21` [7:4, N-pyrazinyl-1,2-dihydro-4-hydroxy-1-methyl-2-oxo-quinoline-3-carboxamide], in series [1], the change in vivo at 10 mg/kg was 27%. In addition, the change in vivo at 80 mg/kg in series [2] stood at 34%. Moreover, in series [3] (setting [4]), the change in vivo at 40 mg/kg amounted to 29%.
For `CN(C)c1ccc(NC(=O)c2c(O)c3cc(N(C)C)cc4c3n(c2=O)CCC4)cc1` [13:3, N-(4-dimethylaminophenyl)-1,2-dihydro-6-dimethylamino-4-hydroxy-2-oxo-1.8-trimethylene-quinoline-3-carboxamide], the “significant enhancing effect in the pertussis vaccine pleurisy test” value in series [1] was “significant enhancing effect”. For the same compound, the “significant potentiation of the carrageenan edema” value (“significant potentiation” for short) in series [2] is reported as “potentiate significantly”. In series [3], the “significant potentiating effect in the adjuvant arthritis test” value is “significant potentiating effect”.
As to `CCN(C(=O)c1c(O)c2ccccc2n(C)c1=O)c1ccccc1` [21:5, N-ethyl-N-phenyl-1,2-dihydro-4-hydroxy-1-methyl-2-oxo-quinoline-3-carboxamide], the change in vivo at 10 mg/kg in series [1] was determined as 29%. Besides, the “significant potentiation” value in series [2] is recorded as “potentiate significantly”. Further, in series [3], the “significant potentiating effect in the adjuvant arthritis test” value is “significant potentiating effect”.
Turning to `COc1ccc(N(C)C(=O)c2c(O)c3ccccc3n(C)c2=O)cc1` [21:6, N-(4-methoxyphenyl)-N-methyl-1,2-dihydro-4-hydroxy-1-methyl-2-oxo-quinoline-3-carboxamide], the values for the change in vivo at 10 mg/kg in series [1] and in series [3] (setting [4]) were 90% and 41%, respectively. The change in vivo at 80 mg/kg in series [2] came to 38%.
Take `CN(C(=O)c1c(O)c2ccccc2n(C)c1=O)c1ccccn1` [21:7, N-methyl-N-(2-pyridyl)-1,2-dihydro-4-hydroxy-1-methyl-2-oxo-quinoline-3-carboxamide]: in series [1], the change in vivo at 10 mg/kg came to 21%. In addition, the “significant potentiation” value in series [2] is “potentiate significantly”. Besides, the “significant potentiating effect in the adjuvant arthritis test” value in series [3] is on record as “significant potentiating effect”.
With `CN(C(=O)c1c(O)c2ccccc2n(C)c1=O)c1ccc(Cl)cc1` [21:9, N-(4-chlorophenyl)-N-methyl-1,2-dihydro-4-hydroxy-1-methyl-2-oxo-quinoline-3-carboxamide], the results for the change in vivo at 10 mg/kg in series [1] and in series [3] (setting [4]) were 84% and 51%, respectively. Further, the change in vivo at 80 mg/kg in series [2] was 52%.
As to `COc1ccc(N(C)C(=O)c2c(O)c3cc(OC)ccc3n(C)c2=O)cc1` [21:14, N-(4-methoxyphenyl)-N-methyl-1,2-dihydro-4-hydroxy-6-methoxy-1-methyl-2-oxo-quinoline-3-carboxamide], the “significant enhancing effect in the pertussis vaccine pleurisy test” value in series [1] is reported as “significant enhancing effect”. For the same compound, the “significant potentiation” value in series [2] is reported as “potentiate significantly”. Besides, the “significant potentiating effect in the adjuvant arthritis test” value in series [3] is “significant potentiating effect”.
Taken in the same sequence, the figures for `CN(C(=O)c1c(O)c2ccccc2n(C)c1=O)c1ccc(F)cc1` [21:35, N-(4-fluorophenyl)-N-methyl-1,2-dihydro-4-hydroxy-1-methyl-2-oxo-quinoline-3-carboxamide] were “significant enhancing effect”, “potentiate significantly” and “significant potentiating effect”.
As to `c1ccc([C@H]2CN3CCSC3=N2)cc1` [Levamisole, levamisole, reference compound], the “acute LD50” value in the series with mice is on record as 285 mg/kg. The change in vivo at 10 mg/kg was determined as 13% in series [1] and 12% in series [3] (setting [4]). The change in vivo at 5 mg/kg in series [3] (Rattus norvegicus, po, 336 h, 5 mg/kg p.o., once daily day -4 to day 14, vs control, preliminary, read-out: Increase of the volume of the left foot) is 4%.

The values above are taken from US4738971A, “N-aryl-1,2-dihydro-4-substituted-1-alkyl-2-oxo-quinoline-3-carboxamides” (priority 1981, dated 1988).
